{
  "source": "ChEMBL document CHEMBL1150765",
  "about": "“Clavatadine A, a natural product with selective recognition and irreversible inhibition of factor XIa” (J Med Chem, 2008)",
  "key": {"[1]": {"target": "Coagulation factor XI (Homo sapiens, UniProt P03951)", "sequence (P03951 19-387 limits assumed)": "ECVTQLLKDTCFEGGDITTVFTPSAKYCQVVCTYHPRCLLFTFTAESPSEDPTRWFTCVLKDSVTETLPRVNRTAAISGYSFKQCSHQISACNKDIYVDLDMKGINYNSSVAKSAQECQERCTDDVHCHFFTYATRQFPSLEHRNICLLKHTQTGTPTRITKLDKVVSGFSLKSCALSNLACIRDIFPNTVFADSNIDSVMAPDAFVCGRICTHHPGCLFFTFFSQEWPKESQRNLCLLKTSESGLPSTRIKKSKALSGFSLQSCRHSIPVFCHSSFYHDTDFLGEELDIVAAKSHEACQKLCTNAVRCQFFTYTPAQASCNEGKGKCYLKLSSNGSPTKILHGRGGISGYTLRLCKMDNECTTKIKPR", "sequence (P03951 388-625 limits assumed)": "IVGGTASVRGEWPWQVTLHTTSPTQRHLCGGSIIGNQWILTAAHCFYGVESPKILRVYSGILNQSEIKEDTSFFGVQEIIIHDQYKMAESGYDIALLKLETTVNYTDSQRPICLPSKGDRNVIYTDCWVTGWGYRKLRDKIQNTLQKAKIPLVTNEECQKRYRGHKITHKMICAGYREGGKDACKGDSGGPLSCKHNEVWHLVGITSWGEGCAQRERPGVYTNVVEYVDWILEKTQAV", "test": "Inhibition of factor 11a"}, "[2]": {"target": "Coagulation factor IX (Homo sapiens) (UniProt P00740)", "sequence (P00740 47-191 limits assumed)": "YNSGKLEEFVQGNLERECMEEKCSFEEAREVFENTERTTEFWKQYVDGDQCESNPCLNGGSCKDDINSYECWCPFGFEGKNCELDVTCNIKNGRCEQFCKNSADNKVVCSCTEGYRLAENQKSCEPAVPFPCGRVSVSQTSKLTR", "sequence (P00740 227-461 limits assumed)": "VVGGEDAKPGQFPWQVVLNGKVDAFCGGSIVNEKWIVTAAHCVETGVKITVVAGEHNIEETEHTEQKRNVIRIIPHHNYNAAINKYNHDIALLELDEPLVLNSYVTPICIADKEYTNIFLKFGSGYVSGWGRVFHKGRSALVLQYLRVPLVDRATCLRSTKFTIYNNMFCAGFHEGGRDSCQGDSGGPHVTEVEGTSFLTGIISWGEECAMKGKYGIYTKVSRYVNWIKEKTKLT", "test": "Inhibition of factor 9a at 222 uM"}},
  "data": [
    {"smiles": "N=C(N)NCCCCNC(=O)Oc1c(Br)cc(O)c(CC(=O)O)c1Br", "note": "[CLAVATADINE A]", "values": [
      {"measurement": "IC50", "setting": "[1]", "value": 1.3, "unit": "µM"},
      {"measurement": "inhibition", "setting": "[2]", "value": "< 5", "unit": "%"}
    ]},
    {"smiles": "N=C(N)NCCCCNC(=O)Oc1cc(Br)c(O)c(Br)c1CC(N)=O", "note": "[CLAVATADINE B]", "values": [
      {"measurement": "IC50", "setting": "[1]", "value": 27, "unit": "µM"},
      {"measurement": "inhibition", "setting": "[2]", "value": "< 5", "unit": "%"}
    ]}
  ]
}
